Test results as given in PubChem BioAssay (NCI).
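Protocol summary: plate cells (96-well), add compound at 5 concentrations, incubate 48 h, interpolate endpoints linearly. Abbreviation: GI50, concentration required for 50% inhibition of growth. Definition used: TGI = concentration required for complete inhibition of growth.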

What was measured:
Assay in all cases: NCI tumour cell line growth inhibition, 48 h
786-0 renal = system: 786-0 renal
A498 renal = system: A498 renal
A549 NSCLC = system: A549 NSCLC
ACHN renal = system: ACHN renal
BT-549 breast = system: BT-549 breast
CAKI-1 renal = system: CAKI-1 renal
CCRF-CEM leukemia = system: CCRF-CEM leukemia
COLO 205 colon = system: COLO 205 colon
DU-145 prostate = system: DU-145 prostate
EKVX NSCLC = system: EKVX NSCLC
HCC-2998 colon = system: HCC-2998 colon
HCT-116 colon = system: HCT-116 colon
HCT-15 colon = system: HCT-15 colon
HL-60(TB) leukemia = system: HL-60(TB) leukemia
HOP-62 NSCLC = system: HOP-62 NSCLC
HOP-92 NSCLC = system: HOP-92 NSCLC
HS 578T breast = system: HS 578T breast
HT29 colon = system: HT29 colon
IGROV1 ovarian = system: IGROV1 ovarian
K-562 leukemia = system: K-562 leukemia
KM12 colon = system: KM12 colon
LOX IMVI melanoma = system: LOX IMVI melanoma
M14 melanoma = system: M14 melanoma
MCF7 breast = system: MCF7 breast
MDA-MB-231 breast = system: MDA-MB-231 breast
MDA-MB-435 = system: MDA-MB-435
MOLT-4 leukemia = system: MOLT-4 leukemia
NCI-H226 lung = system: NCI-H226 lung

**Q.** With `S=C(Nc1ccccc1)N1CCn2c1nsc2=Nc1ccccc1` as the molecule, how does the GI50 (786-0 renal) read?
**A.** 53.3 µM

**Q.** What about the TGI (786-0 renal) of the same molecule?
**A.** > 100 µM

**Q.** What about the GI50 (A498 renal) of the same molecule?
**A.** 77.9 µM

**Q.** And the TGI (A498 renal)?
**A.** > 100 µM

**Q.** What about the GI50 (A549 NSCLC) of the same molecule?
**A.** > 100 µM

**Q.** And the TGI (A549 NSCLC)?
**A.** > 100 µM

**Q.** What about the GI50 (ACHN renal) of the same molecule?
**A.** 50.3 µM

**Q.** And the TGI (ACHN renal)?
**A.** > 100 µM

**Q.** And the GI50 (BT-549 breast)?
**A.** 76.7 µM

**Q.** And the TGI (BT-549 breast)?
**A.** > 100 µM

**Q.** What about the GI50 (CAKI-1 renal) of the same molecule?
**A.** > 100 µM

**Q.** And the TGI (CAKI-1 renal)?
**A.** > 100 µM

**Q.** And the GI50 (CCRF-CEM leukemia)?
**A.** 31.4 µM

**Q.** What about the TGI (CCRF-CEM leukemia) of the same molecule?
**A.** > 100 µM

**Q.** What about the GI50 (COLO 205 colon) of the same molecule?
**A.** > 100 µM

**Q.** And the TGI (COLO 205 colon)?
**A.** > 100 µM

**Q.** What about the GI50 (DU-145 prostate) of the same molecule?
**A.** > 100 µM

**Q.** What about the TGI (DU-145 prostate) of the same molecule?
**A.** > 100 µM

**Q.** What about the GI50 (EKVX NSCLC) of the same molecule?
**A.** > 100 µM

**Q.** What about the TGI (EKVX NSCLC) of the same molecule?
**A.** > 100 µM

**Q.** What about the GI50 (HCC-2998 colon) of the same molecule?
**A.** > 100 µM

**Q.** What about the TGI (HCC-2998 colon) of the same molecule?
**A.** > 100 µM

**Q.** And the GI50 (HCT-116 colon)?
**A.** 34.6 µM

**Q.** And the TGI (HCT-116 colon)?
**A.** > 100 µM

**Q.** What about the GI50 (HCT-15 colon) of the same molecule?
**A.** 78.2 µM

**Q.** What about the TGI (HCT-15 colon) of the same molecule?
**A.** > 100 µM

**Q.** And the GI50 (HL-60(TB) leukemia)?
**A.** > 100 µM

**Q.** And the TGI (HL-60(TB) leukemia)?
**A.** > 100 µM

**Q.** And the GI50 (HOP-62 NSCLC)?
**A.** > 100 µM

**Q.** What about the TGI (HOP-62 NSCLC) of the same molecule?
**A.** > 100 µM

**Q.** And the GI50 (HOP-92 NSCLC)?
**A.** 92.7 µM

**Q.** What about the TGI (HOP-92 NSCLC) of the same molecule?
**A.** > 100 µM

**Q.** And the GI50 (HS 578T breast)?
**A.** 53.4 µM

**Q.** What about the TGI (HS 578T breast) of the same molecule?
**A.** > 100 µM

**Q.** What about the GI50 (HT29 colon) of the same molecule?
**A.** > 100 µM

**Q.** And the TGI (HT29 colon)?
**A.** > 100 µM

**Q.** What about the GI50 (IGROV1 ovarian) of the same molecule?
**A.** 50.2 µM

**Q.** What about the TGI (IGROV1 ovarian) of the same molecule?
**A.** > 100 µM

**Q.** What about the GI50 (K-562 leukemia) of the same molecule?
**A.** 31.3 µM

**Q.** And the TGI (K-562 leukemia)?
**A.** > 100 µM

**Q.** And the GI50 (KM12 colon)?
**A.** > 100 µM

**Q.** What about the TGI (KM12 colon) of the same molecule?
**A.** > 100 µM

**Q.** What about the GI50 (LOX IMVI melanoma) of the same molecule?
**A.** 29.1 µM

**Q.** What about the TGI (LOX IMVI melanoma) of the same molecule?
**A.** > 100 µM

**Q.** And the GI50 (M14 melanoma)?
**A.** > 100 µM

**Q.** And the TGI (M14 melanoma)?
**A.** > 100 µM

**Q.** What about the GI50 (MCF7 breast) of the same molecule?
**A.** > 100 µM

**Q.** And the TGI (MCF7 breast)?
**A.** > 100 µM

**Q.** What about the GI50 (MDA-MB-231 breast) of the same molecule?
**A.** 34.8 µM

**Q.** What about the TGI (MDA-MB-231 breast) of the same molecule?
**A.** > 100 µM

**Q.** And the GI50 (MDA-MB-435)?
**A.** > 100 µM

**Q.** What about the TGI (MDA-MB-435) of the same molecule?
**A.** > 100 µM

**Q.** What about the GI50 (MOLT-4 leukemia) of the same molecule?
**A.** 56.5 µM

**Q.** What about the TGI (MOLT-4 leukemia) of the same molecule?
**A.** > 100 µM

**Q.** And the GI50 (NCI-H226 lung)?
**A.** 61.6 µM

**Q.** What about the TGI (NCI-H226 lung) of the same molecule?
**A.** > 100 µM
